Data from the Deep4Chem optical property database.

Assay: photoluminescence quantum yield (fraction); solvent given as SMILES

For c1ccc(C2=C(c3ccccc3)c3cccc4c3c(cc3nc5cc(-c6ccccc6)c(-c6ccccc6)cc5nc34)O2)cc1, which photoluminescence quantum yield (in ClCCl) is on record?
Its photoluminescence quantum yield is 0.86.

Which photoluminescence quantum yield (in C1CCOC1) does the source give for CCOC(=O)C1=CN(c2ccccc2)C=C(C(=O)OCC)C1 here?
The photoluminescence quantum yield was 0.2.

And the photoluminescence quantum yield (in CO)?
Its photoluminescence quantum yield is 0.16.

For c1ccc2nc3c(nc2c1)[nH]c1ccccc13, which photoluminescence quantum yield (in C1COCCO1) is on record?
The photoluminescence quantum yield was 0.04.

What about the photoluminescence quantum yield (in CC#N) of the same compound?
Its photoluminescence quantum yield is 0.05.

What about the photoluminescence quantum yield (in CCCCCCC) of the same compound?
The photoluminescence quantum yield was 0.02.

And the photoluminescence quantum yield (in CCO)?
The photoluminescence quantum yield was 0.01.

For COc1ccc2oc(=N)c(C#N)cc2c1, which photoluminescence quantum yield (in ClCCl) is on record?
The photoluminescence quantum yield was 0.062.

What does the source list for COc1ccc(C2CC(c3ccc(O)cc3)=NN2c2ccc(S(N)(=O)=O)cc2)cc1 (configuration not stated)?
photoluminescence quantum yield (in C1CCOC1): 0.78; photoluminescence quantum yield (in C1COCCO1): 0.73; photoluminescence quantum yield (in CC#N): 0.7; photoluminescence quantum yield (in CC(C)O): 0.55; photoluminescence quantum yield (in CCO): 0.47; photoluminescence quantum yield (in CCOC(C)=O): 0.76; photoluminescence quantum yield (in CN(C)C=O): 0.87; photoluminescence quantum yield (in CO): 0.38; photoluminescence quantum yield (in CS(C)=O): 0.88; photoluminescence quantum yield (in O): 0.54

With N#C/C(=C\c1ccncc1)c1nc(-c2ccccc2)cs1 as the compound, how does the photoluminescence quantum yield (in CC#N) read?
The photoluminescence quantum yield was 0.263.

What about the photoluminescence quantum yield (in CCO) of the same compound?
Its photoluminescence quantum yield is 0.6.

What about the photoluminescence quantum yield (in CN(C)C=O) of the same compound?
The photoluminescence quantum yield was 0.406.

And the photoluminescence quantum yield (in CS(C)=O)?
The photoluminescence quantum yield was 0.124.

And the photoluminescence quantum yield (in Cc1ccccc1)?
Its photoluminescence quantum yield is 0.346.

And the photoluminescence quantum yield (in ClCCl)?
The photoluminescence quantum yield was 0.086.

For CC1=C2C=CC(C)=[N+]2[B-](F)(F)n2cccc21, which photoluminescence quantum yield (in CCCCCC) is on record?
Its photoluminescence quantum yield is 0.96.

What about the photoluminescence quantum yield (in CO) of the same compound?
Its photoluminescence quantum yield is 1.

And the photoluminescence quantum yield (in ClCCl)?
The photoluminescence quantum yield was 0.89.

With CN1c2cc3nc4cc(Cl)c(Cl)cc4nc3cc2N(C)C1(C)C as the compound, how does the photoluminescence quantum yield (in CCO) read?
Its photoluminescence quantum yield is 0.7.

Which photoluminescence quantum yield (in C1CCCCC1) does the source give for COc1ccc(C2=C(c3ccc(OC)cc3)C(C)(C)c3cc(-c4ccccc4)ccc32)cc1 here?
Its photoluminescence quantum yield is 0.06.

Which photoluminescence quantum yield (in ClC(Cl)Cl) does the source give for CCCCN1C(=O)c2ccc3c4c(Br)cc5c6c(ccc(c7c(Br)cc(c2c37)C1=O)c64)C(=O)N(CCCC)C5=O here?
Its photoluminescence quantum yield is 0.73.

Which photoluminescence quantum yield (in CN(C)C=O) does the source give for Cc1nc2cccc(-c3nc4ccccc4[nH]3)c2c(=O)[nH]1 here?
The photoluminescence quantum yield was 0.088.

For CC(C)(C)c1ccc2oc3nc4oc5ccc(-n6c7ccccc7c(=O)c7ccccc76)cc5c4cc3c2c1, which photoluminescence quantum yield (in ClC(Cl)Cl) is on record?
Its photoluminescence quantum yield is 0.391.

Which results are given for CC(=O)[B-]1(C(C)=O)OC(C)=CC(c2ccc3ccccc3c2)=[O+]1?
photoluminescence quantum yield (in CC#N): 0.13; photoluminescence quantum yield (in ClC(Cl)(Cl)Cl): 0.16

For CCCCc1ccc(-n2c3c4ccc(C(F)(F)F)cc4nc(-c4ccc(C#N)cc4)c3c3c2c2c(-c4ccc(C#N)cc4)nc4cc(C(F)(F)F)ccc4c2n3-c2ccc(CCCC)cc2)cc1, which photoluminescence quantum yield (in ClC(Cl)Cl) is on record?
Its photoluminescence quantum yield is 0.14.

Which photoluminescence quantum yield (in ClCCl) does the source give for CCOC(=O)COc1ccc(/C=C/C2=C3C(C)=CC(/C=C/c4ccc(OCC(=O)OCC)cc4)=[N+]3[B-](F)(F)n3c2c2ccccc2c3-c2[nH]c(C)cc2C)cc1 here?
Its photoluminescence quantum yield is 0.01.

What does the source list for COc1c2ccccc2c(OC)c2c1c1ccc(F)cc1n2C?
photoluminescence quantum yield (in C1CCCCC1): 0.36; photoluminescence quantum yield (in CC#N): 0.27; photoluminescence quantum yield (in CO): 0.34; photoluminescence quantum yield (in ClCCl): 0.45

For Cc1cc(C)c(C2=C3C=CC=[N+]3[B-]3(c4ccc5ccc6cccc7ccc4c5c67)Oc4cc(O)cc5c6ccc(C)cc6c6cc2n3c6c45)c(C)c1 (configuration not stated), which photoluminescence quantum yield (in ClC(Cl)Cl) is on record?
The photoluminescence quantum yield was 0.24.

Which photoluminescence quantum yield (in ClC(Cl)Cl) does the source give for CCCCCCn1c2ccccc2c2cc3c4cc5c6ccccc6n(CCCCCC)c5cc4c4cc5c(C)cc(=O)oc5cc4c3cc21 here?
The photoluminescence quantum yield was 0.12.

With Cc1ccc2c3ccc(C)cc3c3cc4c(C)cc(=O)oc4cc3c2c1 as the compound, how does the photoluminescence quantum yield (in ClC(Cl)Cl) read?
The photoluminescence quantum yield was 0.11.

With NS(=O)(=O)c1ccc(N2N=C(c3ccc(O)cc3)CC2c2ccc(Br)cc2)cc1 (configuration not stated) as the compound, how does the photoluminescence quantum yield (in C1CCOC1) read?
The photoluminescence quantum yield was 0.7.

What about the photoluminescence quantum yield (in C1COCCO1) of the same compound?
Its photoluminescence quantum yield is 0.75.

What about the photoluminescence quantum yield (in CC#N) of the same compound?
The photoluminescence quantum yield was 0.65.

What about the photoluminescence quantum yield (in CC(C)O) of the same compound?
The photoluminescence quantum yield was 0.57.

What about the photoluminescence quantum yield (in CCO) of the same compound?
The photoluminescence quantum yield was 0.5.

And the photoluminescence quantum yield (in CCOC(C)=O)?
Its photoluminescence quantum yield is 0.75.

And the photoluminescence quantum yield (in CN(C)C=O)?
The photoluminescence quantum yield was 0.68.

And the photoluminescence quantum yield (in CO)?
Its photoluminescence quantum yield is 0.38.

And the photoluminescence quantum yield (in CS(C)=O)?
The photoluminescence quantum yield was 0.69.

What about the photoluminescence quantum yield (in O) of the same compound?
Its photoluminescence quantum yield is 0.56.

For COc1cc(OC)cc(C2=C3C(C)=C(I)C(C)=[N+]3[B-](F)(F)n3c(/C=C/c4c[nH]c5ccc([N+](=O)[O-])cc45)c(I)c(C)c32)c1, which photoluminescence quantum yield (in C1CCOC1) is on record?
The photoluminescence quantum yield was 0.32.

What about the photoluminescence quantum yield (in CS(C)=O) of the same compound?
The photoluminescence quantum yield was 0.19.

What about the photoluminescence quantum yield (in ClCCl) of the same compound?
Its photoluminescence quantum yield is 0.37.

Which photoluminescence quantum yield (in O) does the source give for COc1ccc(OC)c(C2=C3C=CC(=[N+](C)C)C=C3[Si](C)(C)c3cc(N(C)C)ccc32)c1 here?
Its photoluminescence quantum yield is 0.025.
